Assay results taken from ChEMBL document CHEMBL4428075, “New antiproliferative 7-(4-(N-substituted carbamoylmethyl)piperazin-1-yl) derivatives of ciprofloxacin induce cell cycle arrest at G2/M phase” (Bioorg Med Chem, 2016).

Columns and labels:
Type in all cases: functional
MOLT-4 = assay: Antiproliferative activity against human MOLT4 cells at 10^-5 M after 48 hrs by SRB assay; conditions: MOLT-4, 48 h, read-out: GI
HL-60(TB) = assay: Antiproliferative activity against human HL-60(TB) cells at 10^-5 M after 48 hrs by SRB assay; conditions: HL-60, 48 h, read-out: GI
HOP-92 = assay: Antiproliferative activity against human HOP92 cells at 10^-5 M after 48 hrs by SRB assay; conditions: HOP-92, 48 h, read-out: GI
CCRF-CEM = assay: Antiproliferative activity against human CCRF-CEM cells at 10^-5 M after 48 hrs by SRB assay; conditions: read-out: GI
SR = assay: Antiproliferative activity against human SR cells at 10^-5 M after 48 hrs by SRB assay; conditions: read-out: GI
A549 = assay: Antiproliferative activity against human A549 cells at 10^-5 M after 48 hrs by SRB assay; conditions: A549, 48 h, read-out: GI
HOP-62 = assay: Antiproliferative activity against human HOP62 cells at 10^-5 M after 48 hrs by SRB assay; conditions: HOP-62, 48 h, read-out: GI
NCI-H226 = assay: Antiproliferative activity against human NCI-H226 cells at 10^-5 M after 48 hrs by SRB assay; conditions: NCI-H226, 48 h, read-out: GI
NCI-H322M = assay: Antiproliferative activity against human NCI-H322M cells at 10^-5 M after 48 hrs by SRB assay; conditions: read-out: GI
NCI-H460 = assay: Antiproliferative activity against human NCI-H460 cells at 10^-5 M after 48 hrs by SRB assay; conditions: NCI-H460, 48 h, read-out: GI
NCI-H522 = assay: Antiproliferative activity against human NCI-H522 cells at 10^-5 M after 48 hrs by SRB assay; conditions: NCI-H522, 48 h, read-out: GI
HCT-116 = assay: Antiproliferative activity against human HCT116 cells at 10^-5 M after 48 hrs by SRB assay; conditions: HCT-116, 48 h, read-out: GI
HT-29 = assay: Antiproliferative activity against human HT-29 cells at 10^-5 M after 48 hrs by SRB assay; conditions: HT-29, 48 h, read-out: GI
SF-268 = assay: Antiproliferative activity against human SF268 cells at 10^-5 M after 48 hrs by SRB assay; conditions: SF-268, 48 h, read-out: GI
SF-295 = assay: Antiproliferative activity against human SF295 cells at 10^-5 M after 48 hrs by SRB assay; conditions: SF-295, 48 h, read-out: GI
SNB-19 = assay: Antiproliferative activity against human SNB19 cells at 10^-5 M after 48 hrs by SRB assay; conditions: SNB-19, 48 h, read-out: GI
SNB-75 = assay: Antiproliferative activity against human SNB75 cells at 10^-5 M after 48 hrs by SRB assay; conditions: SNB-75, 48 h, read-out: GI
U-251 = assay: Antiproliferative activity against human U251 cells at 10^-5 M after 48 hrs by SRB assay; conditions: U-251, 48 h, read-out: GI
PC-3 = assay: Antiproliferative activity against human PC3 cells at 10^-5 M after 48 hrs by SRB assay; conditions: PC-3, 48 h, read-out: GI
DU-145 = assay: Antiproliferative activity against human DU145 cells at 10^-5 M after 48 hrs by SRB assay; conditions: DU-145, 48 h, read-out: GI
LOX IMVI = assay: Antiproliferative activity against human LOXIMVI cells at 10^-5 M after 48 hrs by SRB assay; conditions: read-out: GI
Malme-3M = assay: Antiproliferative activity against human MALME-3M cells at 10^-5 M after 48 hrs by SRB assay; conditions: read-out: GI
M14 = assay: Antiproliferative activity against human M14 cells at 10^-5 M after 48 hrs by SRB assay; conditions: M14, 48 h, read-out: GI
SK-MEL-2 = assay: Antiproliferative activity against human SK-MEL-2 cells at 10^-5 M after 48 hrs by SRB assay; conditions: SK-MEL-2, 48 h, read-out: GI
SK-MEL-5 = assay: Antiproliferative activity against human SK-MEL-5 cells at 10^-5 M after 48 hrs by SRB assay; conditions: SK-MEL-5, 48 h, read-out: GI
UACC-257 = assay: Antiproliferative activity against human UACC257 cells at 10^-5 M after 48 hrs by SRB assay; conditions: UACC-257, 48 h, read-out: GI
UACC-62 = assay: Antiproliferative activity against human UACC62 cells at 10^-5 M after 48 hrs by SRB assay; conditions: UACC-62, 48 h, read-out: GI
OVCAR-3 = assay: Antiproliferative activity against human OVCAR3 cells at 10^-5 M after 48 hrs by SRB assay; conditions: OVCAR-3, 48 h, read-out: GI
OVCAR-4 = assay: Antiproliferative activity against human OVCAR4 cells at 10^-5 M after 48 hrs by SRB assay; conditions: OVCAR-4, 48 h, read-out: GI
OVCAR-5 = assay: Antiproliferative activity against human OVCAR5 cells at 10^-5 M after 48 hrs by SRB assay; conditions: OVCAR-5, 48 h, read-out: GI
NCI/ADR-RES = assay: Antiproliferative activity against human NCI-ADR-RES cells at 10^-5 M after 48 hrs by SRB assay; conditions: read-out: GI
786-0 = assay: Antiproliferative activity against human 786-0 cells at 10^-5 M after 48 hrs by SRB assay; conditions: 786-0, 48 h, read-out: GI
A498 = assay: Antiproliferative activity against human A498 cells at 10^-5 M after 48 hrs by SRB assay; conditions: A498, 48 h, read-out: GI
RXF 393 = assay: Antiproliferative activity against human RXF393 cells at 10^-5 M after 48 hrs by SRB assay; conditions: RXF 393, 48 h, read-out: GI
SN12C = assay: Antiproliferative activity against human SN12C cells at 10^-5 M after 48 hrs by SRB assay; conditions: read-out: GI
UO-31 = assay: Antiproliferative activity against human UO31 cells at 10^-5 M after 48 hrs by SRB assay; conditions: UO-31, 48 h, read-out: GI
MCF7 = assay: Antiproliferative activity against human MCF7 cells at 10^-5 M after 48 hrs by SRB assay; conditions: MCF7, 48 h, read-out: GI
MDA-MB-231 = assay: Antiproliferative activity against human MDA-MB-231 cells at 10^-5 M after 48 hrs by SRB assay; conditions: MDA-MB-231, 48 h, read-out: GI
MDA-MB-468 = assay: Antiproliferative activity against human MDA-MB-468 cells at 10^-5 M after 48 hrs by SRB assay; conditions: MDA-MB-468, 48 h, read-out: GI

COc1ccc(NC(=O)CN2CCN(c3cc4c(cc3F)c(=O)c(C(=O)O)cn4C3CC3)CC2)cc1
inhibition of growth at 10 µM (MOLT-4): 0%
inhibition of growth at 10 µM (HL-60(TB)): 0%
inhibition of growth at 10 µM (HOP-92): 5.92%
inhibition of growth at 10 µM (CCRF-CEM): 0%
inhibition of growth at 10 µM (SR): 0%
inhibition of growth at 10 µM (A549): 7.18%
inhibition of growth at 10 µM (HOP-62): 13%
inhibition of growth at 10 µM (NCI-H226): 16.8%
inhibition of growth at 10 µM (NCI-H322M): 26.4%
inhibition of growth at 10 µM (NCI-H460): 6.32%
inhibition of growth at 10 µM (NCI-H522): 12.9%
inhibition of growth at 10 µM (HCT-116): 9.38%
inhibition of growth at 10 µM (HT-29): 0.04%
inhibition of growth at 10 µM (SF-268): 6.72%
inhibition of growth at 10 µM (SF-295): 2.32%
inhibition of growth at 10 µM (SNB-19): 12.3%
inhibition of growth at 10 µM (SNB-75): 12%
inhibition of growth at 10 µM (U-251): 5.8%
inhibition of growth at 10 µM (PC-3): 11.6%
inhibition of growth at 10 µM (DU-145): 0%
inhibition of growth at 10 µM (LOX IMVI): 39%
inhibition of growth at 10 µM (Malme-3M): 5.64%
inhibition of growth at 10 µM (M14): 8.75%
inhibition of growth at 10 µM (SK-MEL-2): 0%
inhibition of growth at 10 µM (SK-MEL-5): 3.22%
inhibition of growth at 10 µM (UACC-257): 16.9%
inhibition of growth at 10 µM (UACC-62): 10.5%
inhibition of growth at 10 µM (OVCAR-3): 0%
inhibition of growth at 10 µM (OVCAR-4): 0%
inhibition of growth at 10 µM (OVCAR-5): 0%
inhibition of growth at 10 µM (NCI/ADR-RES): 0%
inhibition of growth at 10 µM (786-0): 20.9%
inhibition of growth at 10 µM (A498): 37.6%
inhibition of growth at 10 µM (RXF 393): 11.8%
inhibition of growth at 10 µM (SN12C): 4%
inhibition of growth at 10 µM (UO-31): 17.8%
inhibition of growth at 10 µM (MCF7): 0%
inhibition of growth at 10 µM (MDA-MB-231): 13.8%
inhibition of growth at 10 µM (MDA-MB-468): 6.39%

COc1cc(NC(=O)CN2CCN(c3cc4c(cc3F)c(=O)c(C(=O)O)cn4C3CC3)CC2)cc(OC)c1OC
inhibition of growth at 10 µM (MOLT-4): 0%
inhibition of growth at 10 µM (HL-60(TB)): 8.4%
inhibition of growth at 10 µM (HOP-92): 18.7%
inhibition of growth at 10 µM (CCRF-CEM): 23.2%
inhibition of growth at 10 µM (SR): 0%
inhibition of growth at 10 µM (A549): 0%
inhibition of growth at 10 µM (HOP-62): 8.5%
inhibition of growth at 10 µM (NCI-H226): 0%
inhibition of growth at 10 µM (NCI-H322M): 0%
inhibition of growth at 10 µM (NCI-H460): 0%
inhibition of growth at 10 µM (NCI-H522): 24.4%
inhibition of growth at 10 µM (HCT-116): 0%
inhibition of growth at 10 µM (HT-29): 1.21%
inhibition of growth at 10 µM (SF-268): 0%
inhibition of growth at 10 µM (SF-295): 0%
inhibition of growth at 10 µM (SNB-19): 0%
inhibition of growth at 10 µM (SNB-75): 0%
inhibition of growth at 10 µM (U-251): 0%
inhibition of growth at 10 µM (PC-3): 14.5%
inhibition of growth at 10 µM (DU-145): 0%
inhibition of growth at 10 µM (LOX IMVI): 16.1%
inhibition of growth at 10 µM (Malme-3M): 0%
inhibition of growth at 10 µM (M14): 0%
inhibition of growth at 10 µM (SK-MEL-2): 7.36%
inhibition of growth at 10 µM (SK-MEL-5): 0%
inhibition of growth at 10 µM (UACC-257): 3.24%
inhibition of growth at 10 µM (UACC-62): 0.79%
inhibition of growth at 10 µM (OVCAR-3): 6.06%
inhibition of growth at 10 µM (OVCAR-4): 0%
inhibition of growth at 10 µM (OVCAR-5): 0%
inhibition of growth at 10 µM (NCI/ADR-RES): 0%
inhibition of growth at 10 µM (786-0): 15.2%
inhibition of growth at 10 µM (A498): 0%
inhibition of growth at 10 µM (RXF 393): 0%
inhibition of growth at 10 µM (SN12C): 2.78%
inhibition of growth at 10 µM (UO-31): 0%
inhibition of growth at 10 µM (MCF7): 0%
inhibition of growth at 10 µM (MDA-MB-231): 0%
inhibition of growth at 10 µM (MDA-MB-468): 0%

O=C(CN1CCN(c2cc3c(cc2F)c(=O)c(C(=O)O)cn3C2CC2)CC1)Nc1ccc(Cl)cc1
inhibition of growth at 10 µM (MOLT-4): 3.53%
inhibition of growth at 10 µM (HL-60(TB)): 10.5%
inhibition of growth at 10 µM (HOP-92): 21.1%
inhibition of growth at 10 µM (CCRF-CEM): 23.6%
inhibition of growth at 10 µM (SR): 28.9%
inhibition of growth at 10 µM (A549): 30.8%
inhibition of growth at 10 µM (HOP-62): 28.3%
inhibition of growth at 10 µM (NCI-H226): 19.9%
inhibition of growth at 10 µM (NCI-H322M): 47.2%
inhibition of growth at 10 µM (NCI-H460): 12.1%
inhibition of growth at 10 µM (NCI-H522): 114%
inhibition of growth at 10 µM (HCT-116): 26.9%
inhibition of growth at 10 µM (HT-29): 42.1%
inhibition of growth at 10 µM (SF-268): 8.82%
inhibition of growth at 10 µM (SF-295): 12.1%
inhibition of growth at 10 µM (SNB-19): 16.9%
inhibition of growth at 10 µM (SNB-75): 20.3%
inhibition of growth at 10 µM (U-251): 55.8%
inhibition of growth at 10 µM (PC-3): 19.9%
inhibition of growth at 10 µM (DU-145): 0.9%
inhibition of growth at 10 µM (LOX IMVI): 38.9%
inhibition of growth at 10 µM (Malme-3M): 8.25%
inhibition of growth at 10 µM (M14): 18.2%
inhibition of growth at 10 µM (SK-MEL-2): 5.16%
inhibition of growth at 10 µM (SK-MEL-5): 28.9%
inhibition of growth at 10 µM (UACC-257): 43%
inhibition of growth at 10 µM (UACC-62): 36.4%
inhibition of growth at 10 µM (OVCAR-3): 7.56%
inhibition of growth at 10 µM (OVCAR-4): 14.7%
inhibition of growth at 10 µM (OVCAR-5): 0%
inhibition of growth at 10 µM (NCI/ADR-RES): 0%
inhibition of growth at 10 µM (786-0): 29.9%
inhibition of growth at 10 µM (A498): 31.4%
inhibition of growth at 10 µM (RXF 393): 25.3%
inhibition of growth at 10 µM (SN12C): 9.89%
inhibition of growth at 10 µM (UO-31): 92.8%
inhibition of growth at 10 µM (MCF7): 5.73%
inhibition of growth at 10 µM (MDA-MB-231): 39.8%
inhibition of growth at 10 µM (MDA-MB-468): 14%
